Assay [1] relates to Salmonella typhimurium. Briefly: In vitro antibacterial activity (MIC), Salmonella typhimurium. Conditions: Salmonella enterica, Wellcotest sensitivity Test Agar + 7% lysed horse blood. The format is cell-based.
Assay [2] concerns Entero. aerogenes. Briefly: In vitro antibacterial activity (MIC), Entero. aerogenes. The format is cell-based, Enterobacter aerogenes. Conditions: Klebsiella aerogenes; Wellcotest sensitivity Test Agar + 7% lysed horse blood.
The test system of assay [3] is Citro. freundii. Briefly: In vitro antibacterial activity (MIC), Citro. freundii. In kind it is cell-based. Conditions: Citrobacter freundii; Wellcotest sensitivity Test Agar + 7% lysed horse blood.
In assay [4] the test system is Friend Leukemia Virus (FLV). Briefly: Anti-Friend Leukemia Virus plaque inhibition in FG-10 cells. The format is cell-based. The following applies: dipyridamole 10 μM, dilazep 5 μM, each alone.
In assay [5] the test system is HIV. Briefly: AZT/Acyclovir combinations vs. HIV in vitro (protection). In kind it is cell-based.
The subject of assay [6] is HIV. Briefly: Anti-HIV activity of 3'-azidonucleosides in vitro (T-cells). In kind it is cell-based. The following applies: Human immunodeficiency virus 1; T-cells exposed to HIV, viable cell count; read-out: ED50 (the source's name).
Assay [7] has as its system E. coli CN314. Briefly: In vitro antibacterial MIC and synergy studies against E. coli CN314. Conditions: Escherichia coli.

Molecules are shown by their SMILES.

Turning to `Cc1cn([C@H]2C[C@H](N=[N+]=[N-])[C@@H](CO)O2)c(=O)[nH]c1=S` [Compound 1, 3'-Azido-3'-deoxy-4-thiothymidine], the figures for the MIC in assay [1], in assay [2] and in assay [3] were < 0.1 µg/mL, < 0.1 µg/mL and 10 µg/mL, respectively.
Take `OCCN(CCO)c1nc(N2CCCCC2)c2nc(N(CCO)CCO)nc(N3CCCCC3)c2n1` [dipyridamole]: the “observed antiviral effect alone” value in assay [4] is “Neither dipyridamole (10 μM) nor dilazep (5 μM) alone had any observed antiviral effect”.
With `Cc1cn([C@H]2C[C@H](N=[N+]=[N-])[C@@H](CO)O2)c(OCc2ccccc2)nc1=O` [Compound 6, 1-(3'-Azido-2',3'-dideoxy-β-D-erythro-pentofuranosyl)-2-(benzyloxo)-5-methyl-4-(1H)-pyrimidinone], the MIC in assay [1], in assay [2] and in assay [3] was 10 µg/mL throughout.
As for `Nc1nc2c(ncn2COCCO)c(=O)[nH]1` [ACV, 9-(2-hydroxyethoxymethyl)guanine], in assay [5], the “potentiation of the antiviral activity of AZT” value is recorded as “about 3 -fold”. Moreover, the “activity alone vs. HIV” value in assay [5] (ACV alone) is “little activity”. Also, in assay [5] (Human immunodeficiency virus 1, T-cell, ACV alone, 16 μg/ml (highest tested)), the inhibition at 16 µg/mL was < 30%.
For `CC(=O)OC[C@H]1O[C@@H](n2cc(C)c(=O)n(C(=O)c3ccccc3)c2=O)C[C@@H]1N=[N+]=[N-]` [Compound 4, 5'-Acetyl-3'-azido-3-benzoyl-3'-deoxythymidine], the figures for the MIC in assay [1], in assay [2] and in assay [3] were < 0.1 µg/mL, > 100 µg/mL and < 0.1 µg/mL, respectively.
With `[N-]=[N+]=N[C@H]1C[C@H](n2cc(/C=C/C(=O)O)c(=O)[nH]c2=O)O[C@@H]1CO` [(E)-3-[1-(3'-Azido-2',3'-dideoxy-β-D-erythro-pentofuranosyl)-1,2,3,4-tetrahydro-2,4-dioxo-5-pyrimidinyl]-2-propenoic Acid], the EC50 in assay [6] is 100 µM.
`O=C(N[C@H](CO)[C@H](O)c1ccc([N+](=O)[O-])cc1)C(Cl)Cl` [Chloramphenicol]: in assay [7], the minimum inhibitory concentration (MIC) amounted to 3.1 µg/mL.
Consider `NC[C@H]1O[C@H](O[C@H]2[C@H](O)[C@@H](O[C@H]3O[C@H](CO)[C@@H](O)[C@H](N)[C@H]3O)[C@H](N)C[C@@H]2N)[C@H](N)C[C@@H]1O` [Tobramycin], for which the MIC in assay [7] stood at 0.4 µg/mL.
Regarding `CC(=O)OC[C@H]1O[C@@H](n2cc(C)c(=S)[nH]c2=O)C[C@@H]1N=[N+]=[N-]` [Compound 2, 3'-Azido-3'-deoxy-5'-O-acetyl-4-thiothymidine], the minimal inhibitory concentration (MIC) in assay [1], in assay [2] and in assay [3] was 10 µg/mL throughout.
With `COc1cc(Cc2cnc(N)nc2N)cc(OC)c1OC` [Trimethoprim, 2,4-diamino-5-(3',4',5'-trimethoxybenzyl) pyrimidine, reference compound], the MIC was found to be 0.5 µg/mL in assay [1], 0.5 µg/mL in assay [2], 0.5 µg/mL in assay [3] and 0.125 µg/mL in assay [7].
As for `[N-]=[N+]=N[C@H]1C[C@H](n2ccc(N)nc2=O)O[C@@H]1CO` [3'-Azido-2',3'-dideoxycytidine], in assay [6], the EC50 is 10 µM.
Regarding `CCC[C@@H]1C[C@@H](C(=O)N[C@@H]([C@H]2O[C@H](SC)[C@H](O)[C@@H](O)[C@H]2O)[C@H](C)Cl)N(C)C1` [Clindamycin], the MIC in assay [7] came to 100 µg/mL.
For the compound `CC(=O)O[C@H]1C[C@@]2(C)[C@@H](C[C@@H](O)[C@H]3[C@@]4(C)CC[C@@H](O)[C@@H](C)[C@@H]4CC[C@@]32C)/C1=C(\CCC=C(C)C)C(=O)O` [Fusidic acid], in assay [7], the MIC was 1000 µg/mL.
On to `CC(=O)OC[C@H]1O[C@@H](n2cc(C)c(-n3cncn3)nc2=O)C[C@@H]1N=[N+]=[N-]` [Compound 5, 1-(5'-O-Acetyl-3'-azido-2',3'-deoxy-β-D-erythro-pentofuranosyl)-5-methyl-4-(1,2,4-triazol-1-yl)-2(1H)-pyrimidinone], for which the figures for the minimum inhibitory concentration (MIC) in assay [1], in assay [2] and in assay [3] were > 100 µg/mL, 100 µg/mL and 10 µg/mL, respectively.
Regarding `CO[C@H]1/C=C/O[C@@]2(C)Oc3c(C)c(O)c4c(O)c(c(/C=N/N5CCN(C)CC5)c(O)c4c3C2=O)NC(=O)/C(C)=C\C=C\[C@H](C)[C@H](O)[C@@H](C)[C@@H](O)[C@@H](C)[C@H](OC(C)=O)[C@@H]1C` [Rifampicin], the MIC in assay [7] came out at 6.2 µg/mL.
As for `[N-]=[N+]=N[C@H]1C[C@H](n2cc(Br)c(N)nc2=O)O[C@@H]1CO` [3'-Azido-5-bromo-2',3'-dideoxycytidine], the EC50 in assay [6] turned out to be 5 µM.
With `[N-]=[N+]=N[C@H]1C[C@H](n2cc(Br)c(=O)[nH]c2=O)O[C@@H]1CO` [Compound 8, 3'-Azido-5-bromo-2',3'-dideoxyuridine], the EC50 in assay [6] was 5 µM. In addition, the MIC in assay [1], in assay [2] and in assay [3] was > 100 µg/mL throughout.
Take `COc1cc(C(=O)OCCCN2CCCN(CCCOC(=O)c3cc(OC)c(OC)c(OC)c3)CC2)cc(OC)c1OC` [dilazep]: the “observed antiviral effect alone” value in assay [4] is “Neither dipyridamole (10 μM) nor dilazep (5 μM) alone had any observed antiviral effect”.
In the case of `Cc1cc(C)nc(NS(=O)(=O)c2ccc(N)cc2)n1` [Sulphadimidine], the MIC in assay [7] came to 32 µg/mL.
Still for that read-out and setting: under `CC[C@H]1OC(=O)[C@H](C)[C@@H](O[C@H]2C[C@@](C)(OC)[C@@H](O)[C@H](C)O2)[C@H](C)[C@@H](O[C@@H]2O[C@H](C)C[C@H](N(C)C)[C@H]2O)[C@](C)(O)C[C@@H](C)C(=O)[C@H](C)[C@@H](O)[C@]1(C)O` [Erythromycin] stands 25 µg/mL.
On to `COc1nc(=O)c(C)cn1[C@H]1C[C@H](N=[N+]=[N-])[C@@H](CO)O1` [Compound 7, 3'-Azido-3'-deoxy-2-methoxythymidine], for which the MIC in assay [1], in assay [2] and in assay [3] was 10 µg/mL each time.
As for `Cc1cn([C@H]2C[C@H](N=[N+]=[N-])[C@@H](CO)O2)c(=S)[nH]c1=O` [Compound 3, 3'-Azido-3'-deoxy-2-deoxy-2-thiothymidine], the values for the MIC in assay [1], in assay [2] and in assay [3] were 10 µg/mL, > 100 µg/mL and 10 µg/mL, respectively.

(Values after US5064946A, “Therapeutic nucleosides” (priority 1987, dated 1991).)
